Data from patent publication US20210353579A1, “HIGH PENETRATION COMPOSITIONS AND USES THEREOF” (Techfields Pharma Co., Ltd., priority 2006, published 2021).
Structures can show the parent of a compound that is named as a salt.

What was measured:
[1] = tested on: cats with ocular hypertension; assay: Intraocular pressure in cats with ocular hypertension; assay type: in vivo, cat; details: 30 mg/kg around the eye, 10 days
Experimental: The ability of diethylaminoethyl acetylsalicylate.HCl to reduce intraocular pressure (IOP) was evaluated in cats with ocular hypertension produced by previously done laser trabeculoplastry. IOP was determined with a pneumatonometer after light corneal anesthesia with dilute proparacaine. 14 Cats were divided into 2 groups. Baseline IOP was determined prior to treatment with the test compound aqueous solution. […] In group B, 30 mg/kg of diethylaminoethyl acetylsalicylate.HCl the area around eye (outside) of cat trice per day for 10 days.

Hypertension patients = assay: Anti-hypertension effect of transdermal atenolol in patients; assay type: in vivo, human; details: 100 mg in 1 ml of pure water per day transdermally
Experimental: 20 Hypertension patents were divided to 2 groups. Group A is control group (n=10, 1 ml of water was administrated to the chest of patients once per day) and group B is atenolol treated group (n=10, 100 mg of atenolol HCl salt was administrated to the chest of patients once per day) (Table 32).

## CCN(CC)CCOC(=O)c1ccccc1OC(C)=O.Cl [Diethylaminoethyl acetylsalicylate.HCl, diethylaminoethyl acetylsalicylate.HCl]
[1]
  anti-glaucoma activity: very strong anti-glaucoma activity

## CC(C)NCC(O)COc1ccc(CC(N)=O)cc1 (centres unmarked) [atenolol HCl salt, reference compound]
Hypertension patients
  blood pressure of hypertension patients: controlled
